Measurements as given in the NIST ThermoML archive (doi:10.1016/j.jct.2004.09.021).

What was measured:
[1] = xn = mol fraction of the nth substance listed; conditions: 101 kPa, Liquid
[2] = refractive index (Na D-line) (dimensionless); xn = mol fraction of the nth substance listed; conditions: 101 kPa, Liquid

COc1ccccc1 [anisole] + CCCCCCCC
Conditions | mass density, 293.15 K [kg/m3] | mass density, 298.15 K [kg/m3] | mass density, 303.15 K [kg/m3] | refractive index, 293.15 K | refractive index, 298.15 K | refractive index, 303.15 K | viscosity, 293.15 K [mPa·s] | viscosity, 298.15 K [mPa·s] | viscosity, 303.15 K [mPa·s]
[1], x1 = 0.1031 | 722.82 | 718.75 | 714.63 | – | – | – | 0.5523 | 0.5195 | 0.4917
[1], x1 = 0.2253 | 749.02 | 744.78 | 740.6 | – | – | – | 0.568 | 0.5349 | 0.5042
[1], x1 = 0.3001 | 766.32 | 762.01 | 757.77 | – | – | – | 0.5825 | 0.5446 | 0.5166
[1], x1 = 0.4 | 791.02 | 786.68 | 782.37 | – | – | – | 0.6136 | 0.5719 | 0.5434
[1], x1 = 0.5092 | 820.49 | 816.09 | 811.7 | – | – | – | 0.6541 | 0.6157 | 0.5779
[1], x1 = 0.5998 | 847.08 | 842.65 | 838.17 | – | – | – | 0.7026 | 0.6542 | 0.6162
[1], x1 = 0.6977 | 878.22 | 873.72 | 869.19 | – | – | – | 0.7639 | 0.7153 | 0.6729
[1], x1 = 0.7998 | 913.74 | 909.15 | 904.54 | – | – | – | 0.8456 | 0.7845 | 0.7453
[1], x1 = 0.8975 | 950.96 | 946.32 | 941.63 | – | – | – | 0.9497 | 0.8917 | 0.8289
[1], x1 = 1 | 993.81 | 989.15 | 984.42 | – | – | – | 1.085 | 1.017 | 0.9285
[2], x1 = 0.106 | – | – | – | 1.405 | 1.4029 | 1.4004 | – | – | –
[2], x1 = 0.231 | – | – | – | 1.4158 | 1.4136 | 1.4114 | – | – | –
[2], x1 = 0.307 | – | – | – | 1.423 | 1.4208 | 1.4187 | – | – | –
[2], x1 = 0.3991 | – | – | – | 1.4324 | 1.4303 | 1.4283 | – | – | –
[2], x1 = 0.503 | – | – | – | 1.444 | 1.4419 | 1.44 | – | – | –
[2], x1 = 0.6 | – | – | – | 1.4562 | 1.454 | 1.4522 | – | – | –
[2], x1 = 0.69 | – | – | – | 1.4683 | 1.4661 | 1.4643 | – | – | –
[2], x1 = 0.796 | – | – | – | 1.4838 | 1.4815 | 1.4797 | – | – | –
[2], x1 = 0.8822 | – | – | – | 1.4973 | 1.495 | 1.4933 | – | – | –
[2], x1 = 1 | – | – | – | 1.5161 | 1.5141 | 1.5129 | – | – | –

CCCCCCCCCC [decane] + COc1ccccc1
x2 = 0
Conditions | mass density, 293.15 K [kg/m3] | mass density, 298.15 K [kg/m3] | mass density, 303.15 K [kg/m3] | refractive index, 293.15 K | refractive index, 298.15 K | refractive index, 303.15 K | viscosity, 293.15 K [mPa·s] | viscosity, 298.15 K [mPa·s] | viscosity, 303.15 K [mPa·s]
[1] | 729.91 | 726.16 | 722.36 | – | – | – | 0.9169 | 0.8512 | 0.7898
[2] | – | – | – | 1.4148 | 1.4118 | 1.4089 | – | – | –

CCCCCCCCC [nonane] + COc1ccccc1
x2 = 0
Conditions | mass density, 293.15 K [kg/m3] | mass density, 298.15 K [kg/m3] | mass density, 303.15 K [kg/m3] | refractive index, 293.15 K | refractive index, 298.15 K | refractive index, 303.15 K | viscosity, 293.15 K [mPa·s] | viscosity, 298.15 K [mPa·s] | viscosity, 303.15 K [mPa·s]
[1] | 717.59 | 713.71 | 709.81 | – | – | – | 0.7136 | 0.6715 | 0.6307
[2] | – | – | – | 1.404 | 1.4027 | 1.4002 | – | – | –
